From patent publication US7910751B2, “Heterocyclidene acetamide derivative” (Mochida Pharmaceutical Co., Ltd., priority 2005, dated 2011)

Biological target: T1, human TRPV1 (Homo sapiens, UniProt Q8NER1)
T1 construct: expressed in transfected cells; host or cells: CHO-K1
Experiment: Measurement of capsaicin-induced Ca influx in human TRPV1 transformed CHO cell line using FDSS-6000
Format: cell-based
Settings: concentration at which the capsaicin concentration-reaction curve is shifted two times to the right, human TRPV1 transformed CHO cells
From the text: [Measurement of Capsaicin-Induced Ca Influx in Human TRPV1 Transformed CHO Cell Line]
(1) Establishment of Human TRPV1 Transformed CHO Cell Line
Human vanilloid receptor 1 (hTRPV1) cDNA was cloned from a human brain. The cloned hTRPV1 cDNA was incorporated in a pCAGGS vector. The gene of the vector was introduced to a CHO-K1 cell line, thus performing transformation. Clones obtained by limiting dilution were stimulated with capsaicin. Clones with a high responsiveness were selected using an increase in the Ca concentration as an indicator. The selected clones were used for the following experiment.
(2) Measurement of Ca Influx Using FDSS-6000
The human TRPV1 transformed CHO cells were seeded in a 96-well plate (with black walls and transparent bottoms, manufactured by Greiner) at a density of 40,000 cells per well. The cells were cultured at 37° C. in 5% CO2 for one night. A loading solution of FLIPR Calcium 3 assay kit (manufactured by Molecular Devices Corporation) containing 2.5 mmol/L of probenecid was then added to each of the wells in the same amount as the culture medium, and the cells were cultured at 37° C. for 60 minutes. After the cells were stimulated with capsaicin (1 nmol/L to 1 μmol/L), the change in the Ca concentration in the cells was measured using FDSS-6000 (λex: 480 nm, λem: 540 nm, manufactured by Hamamatsu Photonics K.K.) for three minutes. The integrated values of the increase rate of the Ca concentration in the cells were calculated for a group treated with the compounds of the present invention and a group treated with a medium, thus allowing capsaicin concentration-reaction curves to be obtained. A concentration (A2 value) of each of the compounds of the present invention, at which the capsaicin concentration-reaction curve obtained when the cells were treated with the medium was shifted two times to the right side, was calculated. The inhibiting effects of the test compounds were compared using this value as an indicator.
In the case where a compound of the present invention is an agonist, when the cells are treated with the compound of the present invention prior to the capsaicin stimulation, the Ca influx is observed. In Table 1, compounds of the present invention having an A2 value of less than 100 nM are represented by A, and compounds having an A2 value of 100 nM or more are represented by B. When the A2 values of the compounds of the present invention were measured by the above-described method, the compounds have an intensity of 1 μM or less.

T1 sequence (Q8NER1 whole entry): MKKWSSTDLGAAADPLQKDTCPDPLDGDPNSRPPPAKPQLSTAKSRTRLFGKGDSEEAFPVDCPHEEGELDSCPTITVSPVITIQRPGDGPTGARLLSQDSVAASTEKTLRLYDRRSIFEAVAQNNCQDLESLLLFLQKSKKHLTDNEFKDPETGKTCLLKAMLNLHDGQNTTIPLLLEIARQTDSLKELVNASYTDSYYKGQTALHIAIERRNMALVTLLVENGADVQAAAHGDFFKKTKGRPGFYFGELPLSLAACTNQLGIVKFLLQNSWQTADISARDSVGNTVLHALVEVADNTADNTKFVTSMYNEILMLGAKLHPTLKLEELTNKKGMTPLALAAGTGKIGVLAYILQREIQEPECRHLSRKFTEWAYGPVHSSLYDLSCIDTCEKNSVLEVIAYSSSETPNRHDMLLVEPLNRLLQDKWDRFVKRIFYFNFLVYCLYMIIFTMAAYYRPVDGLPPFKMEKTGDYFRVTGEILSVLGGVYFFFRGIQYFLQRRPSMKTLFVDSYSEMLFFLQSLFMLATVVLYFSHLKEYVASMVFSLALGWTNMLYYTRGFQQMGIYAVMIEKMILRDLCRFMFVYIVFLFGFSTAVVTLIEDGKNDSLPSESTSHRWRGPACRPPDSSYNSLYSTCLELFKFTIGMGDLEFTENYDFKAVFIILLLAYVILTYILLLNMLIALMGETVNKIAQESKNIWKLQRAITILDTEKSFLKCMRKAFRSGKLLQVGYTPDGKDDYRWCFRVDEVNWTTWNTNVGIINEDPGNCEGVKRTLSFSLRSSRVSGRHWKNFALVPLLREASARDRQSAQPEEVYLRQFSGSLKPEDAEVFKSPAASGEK

Row | Compound | A2 VALUE
1 | O=C(C=C1COCc2cc(C(F)(F)F)ccc21)Nc1cccc2c1CC(O)CC2 (stereo in doubt) [Example 237, (E)-2-(7-trifluoromethyl-isochroman-4-ylidene)-N-(7-hydroxy-5,6,7,8-tetrahydronaphthalen-1-yl)acetamide] | A (compounds of the present invention having an A2 value of less than 100 nM are represented by A)
2 | O=C(/C=C1\CCOc2ccccc21)Nc1ccc2c(c1)OCCO2 [Example 1, (E)-2-(chroman-4-ylidene)-N-(2,3-dihydrobenzo[b][1,4]dioxin-6-yl)acetamide] | B (compounds having an A2 value of 100 nM or more are represented by B)
3 | O=C(/C=C1\CCOc2ccccc21)Nc1cccc2cnccc12 [Example 2, (E)-2-(chroman-4-ylidene)-N-(isoquinolin-5-yl)acetamide] | B (compounds having an A2 value of 100 nM or more are represented by B)
4 | CC(C)(C)c1ccc2c(c1)OCC/C2=C\C(=O)NC1CCc2cccnc2C1 (stereo not shown) [Example 3, (E)-2-(7-tert-butyl-chroman-4-ylidene)-N-(5,6,7,8-tetrahydroquinolin-7-yl)acetamide] | A (compounds of the present invention having an A2 value of less than 100 nM are represented by A)
5 | CC(C)(C)c1ccc2c(c1)OCC/C2=C\C(=O)Nc1cccc2cnccc12 [Example 4, (E)-2-(7-tert-butyl-chroman-4-ylidene)-N-(isoquinolin-5-yl)acetamide] | A (compounds of the present invention having an A2 value of less than 100 nM are represented by A)
6 | CC(C)(C)c1ccc2c(c1)OCC/C2=C\C(=O)Nc1ccc2cccnc2c1 [Example 5, (E)-2-(7-tert-butyl-chroman-4-ylidene)-N-(quinolin-7-yl)acetamide] | A (compounds of the present invention having an A2 value of less than 100 nM are represented by A)
7 | O=C(/C=C1\CCOc2cc(C(F)(F)F)ccc21)NC1CCc2cccnc2C1 (stereo not shown) [Example 6, (E)-2-(7-trifluoromethyl-chroman-4-ylidene)-N-(5,6,7,8-tetrahydroquinolin-7-yl)acetamide] | A (compounds of the present invention having an A2 value of less than 100 nM are represented by A)
8 | O=C(/C=C1\CCOc2cc(C(F)(F)F)ccc21)Nc1cccc2cnccc12 [Example 7, (E)-2-(7-trifluoromethyl-chroman-4-ylidene)-N-(isoquinolin-5-yl)acetamide] | A (compounds of the present invention having an A2 value of less than 100 nM are represented by A)
9 | O=C(/C=C1\CCOc2cc(C(F)(F)F)ccc21)Nc1ccc2cccnc2c1 [Example 8, (E)-2-(7-trifluoromethyl-chroman-4-ylidene)-N-(quinolin-7-yl)acetamide] | A (compounds of the present invention having an A2 value of less than 100 nM are represented by A)
10 | O=C(/C=C1\CCCOc2cc(C(F)(F)F)ccc21)Nc1ccc2c(c1)OCCO2 [Example 9, (E)-2-(8-trifluoromethyl-3,4-dihydrobenzo[b]oxepin-5(2H)-ylidene)-N-(2,3-dihydrobenzo[b][1,4]dioxin-6-yl)acetamide] | A (compounds of the present invention having an A2 value of less than 100 nM are represented by A)
11 | O=C(/C=C1\CCCOc2cc(C(F)(F)F)ccc21)NC1CCc2cccnc2C1 (stereo not shown) [Example 10, (E)-2-(8-trifluoromethyl-3,4-dihydrobenzo[b]oxepin-5(2H)-ylidene)-N-(5,6,7,8-tetrahydroquinolin-7-yl)acetamide] | A (compounds of the present invention having an A2 value of less than 100 nM are represented by A)
12 | O=C(/C=C1\CCCOc2cc(C(F)(F)F)ccc21)Nc1cccc2cnccc12 [Example 11, (E)-2-(8-trifluoromethyl-3,4-dihydrobenzo[b]oxepin-5(2H)-ylidene)-N-(isoquinolin-5-yl)acetamide] | A (compounds of the present invention having an A2 value of less than 100 nM are represented by A)
13 | O=C(/C=C1\CCCOc2cc(C(F)(F)F)ccc21)Nc1ccc2nccnc2c1 [Example 12, (E)-2-(8-trifluoromethyl-3,4-dihydrobenzo[b]oxepin-5(2H)-ylidene)-N-(quinoxalin-6-yl)acetamide] | A (compounds of the present invention having an A2 value of less than 100 nM are represented by A)
14 | O=C(/C=C1\CCCOc2cc(C(F)(F)F)ccc21)Nc1ccc2cccnc2c1 [Example 13, (E)-2-(8-trifluoromethyl-3,4-dihydrobenzo[b]oxepin-5(2H)-ylidene)-N-(quinolin-7-yl)acetamide] | A (compounds of the present invention having an A2 value of less than 100 nM are represented by A)
15 | CC(C)(C)c1ccc(NC(=O)/C=C2\CCCOc3cc(C(F)(F)F)ccc32)cc1 [Example 14, (E)-N-(4-tert-butylphenyl)-2-(8-trifluoromethyl-3,4-dihydrobenzo[b]oxepin-5(2H)-ylidene)acetamide] | A (compounds of the present invention having an A2 value of less than 100 nM are represented by A)
16 | O=C(/C=C1\CCCOc2cc(C(F)(F)F)ccc21)Nc1ccc(C(F)(F)F)cc1 [Example 15, (E)-2-(8-trifluoromethyl-3,4-dihydrobenzo[b]oxepin-5(2H)-ylidene)-N-(4-trifluoromethylphenyl)acetamide] | B (compounds having an A2 value of 100 nM or more are represented by B)
17 | COc1cccc(NC(=O)/C=C2\CCCOc3cc(C(F)(F)F)ccc32)c1 [Example 16, (E)-2-(8-trifluoromethyl-3,4-dihydrobenzo[b]oxepin-5(2H)-ylidene)-N-(3-methoxyphenyl)acetamide] | A (compounds of the present invention having an A2 value of less than 100 nM are represented by A)
18 | CN1CCCc2ccc(NC(=O)/C=C3\CCCOc4cc(C(F)(F)F)ccc43)cc21 [Example 17, (E)-2-(8-trifluoromethyl-3,4-dihydrobenzo[b]oxepin-5(2H)-ylidene)-N-(1,2,3,4-tetrahydro-1-methylquinolin-7-yl)acetamide] | A (compounds of the present invention having an A2 value of less than 100 nM are represented by A)
19 | O=C(/C=C1\CCCOc2cc(C(F)(F)F)ccc21)Nc1cccc2ccc(O)cc12 [Example 18, (E)-2-(8-trifluoromethyl-3,4-dihydrobenzo[b]oxepin-5(2H)-ylidene)-N-(7-hydroxynaphthalen-1-yl)acetamide] | A (compounds of the present invention having an A2 value of less than 100 nM are represented by A)
20 | Cc1nc2cc(NC(=O)/C=C3\CCCOc4cc(C(F)(F)F)ccc43)ccc2s1 [Example 19, (E)-2-(8-trifluoromethyl-3,4-dihydrobenzo[b]oxepin-5(2H)-ylidene)-N-(2-methyl-1,3-benzothiazolo-5-yl)acetamide] | A (compounds of the present invention having an A2 value of less than 100 nM are represented by A)
21 | O=C(/C=C1\CCCOc2cc(C(F)(F)F)ccc21)Nc1cccnc1N1CCOCC1 [Example 20, (E)-2-(8-trifluoromethyl-3,4-dihydrobenzo[b]oxepin-5(2H)-ylidene)-N-(2-morpholinopyridin-3-yl)acetamide] | B (compounds having an A2 value of 100 nM or more are represented by B)
22 | Cc1cc(=O)oc2cc(NC(=O)/C=C3\CCCOc4cc(C(F)(F)F)ccc43)ccc12 [Example 21, (E)-2-(8-trifluoromethyl-3,4-dihydrobenzo[b]oxepin-5(2H)-ylidene)-N-(4-methyl-2-oxo-2H-chromen-7-yl)acetamide] | B (compounds having an A2 value of 100 nM or more are represented by B)
